# Source: PubChem BioAssay AID588370 (NMMLSC, 2011)
# Calls of active or inactive are those of the source.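 The calls were made as follows: active = cytotoxic compounds, leaving cell viability under 88%; inactive = viability at or above 88%.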
# Test system: U937 viability, trypan blue exclusion, 24 h
# Assay: U937 cell viability loss by dye exclusion – trypan blue, cytotoxicity control for VLA-4 allosteric modulator project (AID 588370)
# Details: at 10 µM; stronger effect = lower value
row,Structure (SMILES),viability
1,CN(C)CCOc1ccc(-c2c(-c3ccccc3)sc3ccccc23)cc1,97% (inactive)
2,COc1cccc(-c2sc3ccccc3c2-c2ccc(OCCN3CCCC3)cc2)c1,84%
3,COc1cccc(-c2sc3ccccc3c2-c2ccc(OCCN(C)C)cc2)c1,97% (inactive)
4,c1ccc2c(-c3ccc(OCCN4CCCC4)cc3)c(-c3ccsc3)sc2c1,93% (inactive)
5,c1ccc2c(-c3ccc(OCCN4CCCCC4)cc3)c(-c3ccsc3)sc2c1,96% (inactive)
6,COc1ccc(-c2sc3ccccc3c2-c2ccc(OCCN(C)C)cc2)cc1,96% (inactive)
7,c1ccc(-c2sc3ccccc3c2-c2ccc(OCCN3CCCC3)cc2)cc1,97% (inactive)
